{"source": "patent US8551937B2", "about": "“Peptide having an extending action for half-life of object peptide in plasma” (priority 2008, dated 2013)", "experiment": "Motilin immunoreactivity concentration in plasma, half-life after intravenous administration (Example 6)", "format": "in vivo, rat", "details": "for half-life: SD, rat, plasma, 10 nmol/kg, male rats, N = 3, read-out: T½ Mean Value", "note": "Where a SMILES comes first, the peptide text is derived from it.", "procedure": "The experiment was carried out using rats into which polyethylene tube (PE-50 manufactured by Clay Adams) was previously inserted into thigh artery under an anesthetized condition with Nembutal. As to a test system, male SD strain rats (Nippon Charles River) of 7 weeks age were used where one group comprised 3 rats. Human type motilin or a derivative thereof in a dose of 10 nmol/kg was administered into tail vein of the rat and the blood before the administration and until 60 minutes after the administration was collected by a polyethylene tube inserted into the thigh artery. To the collected blood were added EDTA (manufactured by Dojin Laboratories) and aprotinin (manufactured by Bayer) as a stabilizer and an anti-coagulant, respectively and the plasma was separated therefrom by centrifugal separation.", "data": [{"smiles": "CC[C@H](C)[C@H](NC(=O)[C@@H]1CCCN1C(=O)[C@@H](NC(=O)[C@@H](N)Cc1ccccc1)C(C)C)C(=O)N[C@@H](Cc1ccccc1)C(=O)N[C@H](C(=O)N[C@@H](Cc1ccc(O)cc1)C(=O)NCC(=O)N[C@@H](CCC(=O)O)C(=O)N[C@@H](CC(C)C)C(=O)N[C@@H](CCC(N)=O)C(=O)N[C@@H](CCCNC(=N)N)C(=O)N[C@@H](CCC(N)=O)C(=O)N[C@@H](CCCNC(=N)N)C(=O)N[C@@H](CCCCN)C(=O)N[C@@H](CCC(=O)O)C(=O)N[C@@H](CO)C(=O)N[C@@H](CCCCN)C(=O)N[C@@H](CCCCN)C(=O)N1CCC[C@H]1C(=O)N1CCC[C@H]1C(=O)N[C@@H](C)C(=O)N[C@@H](CCCCN)C(=O)N[C@@H](CC(C)C)C(=O)N[C@@H](CCC(N)=O)C(=O)N1CCC[C@H]1C(=O)N[C@@H](CCCNC(=N)N)C(=O)O)[C@@H](C)O", "note": "[Chimeric motilin (E)] (H-FVPIFTYGELQRQRKESKKPPAKLQPR-OH; N-terminus and C-terminus assumed)", "values": [{"measurement": "half-life", "value": 8.03, "unit": "min"}]}, {"smiles": "CC[C@H](C)[C@H](NC(=O)[C@@H]1CCCN1C(=O)[C@@H](NC(=O)[C@@H](N)Cc1ccccc1)C(C)C)C(=O)N[C@@H](Cc1ccccc1)C(=O)N[C@H](C(=O)N[C@@H](Cc1ccc(O)cc1)C(=O)NCC(=O)N[C@@H](CCC(=O)O)C(=O)N[C@@H](CC(C)C)C(=O)N[C@@H](CCC(N)=O)C(=O)N[C@@H](CCCNC(=N)N)C(=O)N[C@@H](CCCCN)C(=O)N[C@@H](CCC(=O)O)C(=O)N[C@@H](CO)C(=O)N[C@@H](CCCCN)C(=O)N[C@@H](CCCCN)C(=O)N1CCC[C@H]1C(=O)N1CCC[C@H]1C(=O)N[C@@H](C)C(=O)N[C@@H](CCCCN)C(=O)N[C@@H](CC(C)C)C(=O)N[C@@H](CCC(N)=O)C(=O)N1CCC[C@H]1C(=O)N[C@@H](CCCNC(=N)N)C(=O)O)[C@@H](C)O", "note": "[Chimeric motilin (F)] (H-FVPIFTYGELQRKESKKPPAKLQPR-OH; N-terminus and C-terminus assumed)", "values": [{"measurement": "half-life", "value": 9.37, "unit": "min"}]}, {"smiles": "CC[C@H](C)[C@H](NC(=O)[C@@H]1CCCN1C(=O)[C@@H](NC(=O)[C@@H](N)Cc1ccccc1)C(C)C)C(=O)N[C@@H](Cc1ccccc1)C(=O)N[C@H](C(=O)N[C@@H](Cc1ccc(O)cc1)C(=O)NCC(=O)N[C@@H](CCC(=O)O)C(=O)N[C@@H](CC(C)C)C(=O)N[C@@H](CCC(N)=O)C(=O)N[C@@H](CCCNC(=N)N)C(=O)N[C@@H](CO)C(=O)N[C@@H](CCCCN)C(=O)N[C@@H](CCCCN)C(=O)N1CCC[C@H]1C(=O)N1CCC[C@H]1C(=O)N[C@@H](C)C(=O)N[C@@H](CCCCN)C(=O)N[C@@H](CC(C)C)C(=O)N[C@@H](CCC(N)=O)C(=O)N1CCC[C@H]1C(=O)N[C@@H](CCCNC(=N)N)C(=O)O)[C@@H](C)O", "note": "[Chimeric motilin (G)] (H-FVPIFTYGELQRSKKPPAKLQPR-OH; N-terminus and C-terminus assumed)", "values": [{"measurement": "half-life", "value": 5.25, "unit": "min"}, {"measurement": "disappearance half-time extending action in vivo compared with native motilin", "setting": "rats", "value": "unable to be confirmed"}]}, {"smiles": "CC[C@H](C)[C@H](NC(=O)[C@@H]1CCCN1C(=O)[C@@H](NC(=O)[C@@H](N)Cc1ccccc1)C(C)C)C(=O)N[C@@H](Cc1ccccc1)C(=O)N[C@H](C(=O)N[C@@H](Cc1ccc(O)cc1)C(=O)NCC(=O)N[C@@H](CCC(=O)O)C(=O)N[C@@H](CC(C)C)C(=O)N[C@@H](CCC(N)=O)C(=O)N[C@@H](CCCNC(=N)N)C(=O)N[C@H](C(=O)N[C@@H](CCC(N)=O)C(=O)N[C@@H](CCC(N)=O)C(=O)N[C@@H](CCCNC(=N)N)C(=O)N[C@@H](CCCCN)C(=O)N[C@@H](CCC(=O)O)C(=O)N[C@@H](CO)C(=O)N[C@@H](CCCCN)C(=O)N[C@@H](CCCCN)C(=O)N1CCC[C@H]1C(=O)N1CCC[C@H]1C(=O)N[C@@H](C)C(=O)N[C@@H](CCCCN)C(=O)N[C@@H](CC(C)C)C(=O)N[C@@H](CCC(N)=O)C(=O)O)C(C)C)[C@@H](C)O", "note": "[Chimeric motilin (H)] (H-FVPIFTYGELQRVQQRKESKKPPAKLQ-OH; N-terminus and C-terminus assumed)", "values": [{"measurement": "half-life", "value": 10.4, "unit": "min"}]}]}
